Experimental data reported in paper PMC8429728, “TNK1 is a ubiquitin-binding and 14-3-3-regulated kinase that can be targeted to block tumor growth” (Nature Communications, 2021).
Like-named read-outs stand apart in the source and are kept apart here.

Columns and labels:
Assay in all cases: biochemical
Design in all cases: Reaction Biology 371-kinase panel at Km ATP, per cent enzyme activity relative to DMSO, single dose in duplicate
Details in all cases: duplicate measurements, Km ATP
BLK = BLK (Homo sapiens, UniProt P51451)
Procedure, shortened: (§1)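 Percent kinase activity relative to vehicle (DMSO) is reported for a 371-kinase in vitro panel at 300 nM compound; IC50 values derive from variable-slope sigmoidal fits with the lower plateau fixed at 0.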

BRSK2 = BRSK2 (Homo sapiens, UniProt Q8IWQ3)
Procedure, shortened: as §1

CDK4/cyclin D1 = CDK4/cyclin D1 (Homo sapiens, UniProt P11802)
Procedure, shortened: as §1

CDK8/cyclin C = CDK8/cyclin C (Homo sapiens, UniProt P49336)
Procedure, shortened: as §1

CK2a = biological target: T1, CK2a (Homo sapiens, UniProt P68400)
T1 construct: gene CSNK2A1
Procedure, shortened: as §1

LYN B = biological target: T2, LYN B (Homo sapiens, UniProt P07948)
T2 construct: isoform B
Procedure, shortened: as §1

MYLK3 = MYLK3 (Homo sapiens, UniProt Q32MK0)
Procedure, shortened: as §1

MYO3A = MYO3A (Homo sapiens, UniProt Q8NEV4)
Procedure, shortened: as §1

NEK1 = NEK1 (Homo sapiens, UniProt Q96PY6)
Procedure, shortened: as §1

OSR1/OXSR1 = OSR1/OXSR1 (Homo sapiens, UniProt O95747)
Procedure, shortened: as §1

P38b/MAPK11 = P38b/MAPK11 (Homo sapiens, UniProt Q15759)
Procedure, shortened: as §1

PIM2 = PIM2 (Homo sapiens, UniProt Q9P1W9)
Procedure, shortened: as §1

PKCa = biological target: T3, PKCa (Homo sapiens, UniProt P17252)
T3 construct: gene PRKCA
Procedure, shortened: as §1

PKCb1 = biological target: T4, PKCb1 (Homo sapiens, UniProt P05771)
T4 construct: gene PRKCB; isoform beta I
Procedure, shortened: as §1

PKCg = biological target: T5, PKCg (Homo sapiens, UniProt P05129)
T5 construct: gene PRKCG
Procedure, shortened: as §1

PKCzeta = biological target: T6, PKCzeta (Homo sapiens, UniProt Q05513)
T6 construct: gene PRKCZ
Procedure, shortened: as §1

PKG1b = biological target: T7, PKG1b (Homo sapiens, UniProt Q13976)
T7 construct: gene PRKG1; isoform beta
Procedure, shortened: as §1

SBK1 = SBK1 (Homo sapiens, UniProt Q52WX2)
Procedure, shortened: as §1

TSSK3/STK22C = TSSK3/STK22C (Homo sapiens, UniProt Q96PN8)
Procedure, shortened: as §1

TYK2 = TYK2 (Homo sapiens, UniProt P29597)
Procedure, shortened: as §1

[1] = read-out: % Enzyme Activity (relative to DMSO controls) / TP-0005801 (0.3µM) / Data 1
[2] = read-out: % Enzyme Activity (relative to DMSO controls) / TP-0005801 (0.3µM) / Data 2

Chain of NEK1 (Q96PY6 whole entry): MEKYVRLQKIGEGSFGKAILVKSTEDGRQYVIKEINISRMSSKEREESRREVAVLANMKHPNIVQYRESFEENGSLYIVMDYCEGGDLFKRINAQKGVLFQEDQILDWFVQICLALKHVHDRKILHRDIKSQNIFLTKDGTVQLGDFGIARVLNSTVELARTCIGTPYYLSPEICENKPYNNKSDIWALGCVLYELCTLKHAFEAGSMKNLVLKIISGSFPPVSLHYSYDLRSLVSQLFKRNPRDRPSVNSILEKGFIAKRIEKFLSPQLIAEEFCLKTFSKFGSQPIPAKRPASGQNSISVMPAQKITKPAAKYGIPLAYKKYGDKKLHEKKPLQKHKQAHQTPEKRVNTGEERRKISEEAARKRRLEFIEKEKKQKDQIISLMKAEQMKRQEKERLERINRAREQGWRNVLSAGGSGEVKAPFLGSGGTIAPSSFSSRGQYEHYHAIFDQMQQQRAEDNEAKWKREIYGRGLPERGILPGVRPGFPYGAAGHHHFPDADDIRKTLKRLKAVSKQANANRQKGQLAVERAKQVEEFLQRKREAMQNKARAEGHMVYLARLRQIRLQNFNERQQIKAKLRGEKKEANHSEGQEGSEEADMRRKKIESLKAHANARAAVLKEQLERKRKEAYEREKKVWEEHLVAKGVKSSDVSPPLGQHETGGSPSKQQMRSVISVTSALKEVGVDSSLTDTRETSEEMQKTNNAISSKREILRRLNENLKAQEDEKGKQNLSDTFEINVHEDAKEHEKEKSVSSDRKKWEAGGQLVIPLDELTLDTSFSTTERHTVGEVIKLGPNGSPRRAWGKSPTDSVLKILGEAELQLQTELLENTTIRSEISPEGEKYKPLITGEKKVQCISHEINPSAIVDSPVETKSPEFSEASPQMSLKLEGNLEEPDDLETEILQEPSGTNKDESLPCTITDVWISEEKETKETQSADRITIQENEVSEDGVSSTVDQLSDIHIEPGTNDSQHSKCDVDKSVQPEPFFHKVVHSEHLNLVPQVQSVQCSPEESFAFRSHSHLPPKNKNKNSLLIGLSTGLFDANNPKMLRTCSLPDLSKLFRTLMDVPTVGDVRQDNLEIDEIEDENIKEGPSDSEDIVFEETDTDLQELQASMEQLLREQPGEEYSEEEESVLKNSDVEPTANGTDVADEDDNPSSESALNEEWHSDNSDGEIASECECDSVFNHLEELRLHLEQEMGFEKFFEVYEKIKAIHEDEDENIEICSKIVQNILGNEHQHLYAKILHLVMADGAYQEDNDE
Chain of MYLK3 (Q32MK0 whole entry): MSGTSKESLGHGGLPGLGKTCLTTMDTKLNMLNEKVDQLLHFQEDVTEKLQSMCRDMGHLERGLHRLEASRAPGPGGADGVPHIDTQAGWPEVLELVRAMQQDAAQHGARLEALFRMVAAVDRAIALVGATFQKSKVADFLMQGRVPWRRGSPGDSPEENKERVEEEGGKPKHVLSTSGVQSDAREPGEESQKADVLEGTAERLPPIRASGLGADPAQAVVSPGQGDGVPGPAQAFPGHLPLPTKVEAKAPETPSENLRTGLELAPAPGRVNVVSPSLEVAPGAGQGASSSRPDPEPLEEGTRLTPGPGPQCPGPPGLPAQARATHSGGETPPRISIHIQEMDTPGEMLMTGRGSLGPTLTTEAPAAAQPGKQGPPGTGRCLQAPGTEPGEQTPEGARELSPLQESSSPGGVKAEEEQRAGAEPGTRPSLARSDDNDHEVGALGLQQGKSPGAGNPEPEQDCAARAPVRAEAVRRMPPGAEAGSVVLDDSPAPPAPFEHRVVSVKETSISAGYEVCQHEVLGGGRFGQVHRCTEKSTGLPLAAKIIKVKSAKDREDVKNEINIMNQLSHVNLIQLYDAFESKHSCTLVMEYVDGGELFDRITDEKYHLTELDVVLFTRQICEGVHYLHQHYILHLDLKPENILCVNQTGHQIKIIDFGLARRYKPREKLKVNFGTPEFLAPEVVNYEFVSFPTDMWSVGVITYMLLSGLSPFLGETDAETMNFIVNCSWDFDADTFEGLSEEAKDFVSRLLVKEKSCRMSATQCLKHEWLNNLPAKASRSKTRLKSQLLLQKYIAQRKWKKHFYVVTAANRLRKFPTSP
Chain of TSSK3/STK22C (Q96PN8 whole entry): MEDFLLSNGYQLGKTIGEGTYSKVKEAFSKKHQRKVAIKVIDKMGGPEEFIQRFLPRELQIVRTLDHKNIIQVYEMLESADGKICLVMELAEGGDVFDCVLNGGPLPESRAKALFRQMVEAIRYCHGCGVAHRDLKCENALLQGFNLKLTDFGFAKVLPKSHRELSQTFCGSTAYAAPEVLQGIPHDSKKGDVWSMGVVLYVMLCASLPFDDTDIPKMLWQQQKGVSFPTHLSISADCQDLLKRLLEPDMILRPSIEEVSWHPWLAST
Chain of PIM2 (Q9P1W9 whole entry): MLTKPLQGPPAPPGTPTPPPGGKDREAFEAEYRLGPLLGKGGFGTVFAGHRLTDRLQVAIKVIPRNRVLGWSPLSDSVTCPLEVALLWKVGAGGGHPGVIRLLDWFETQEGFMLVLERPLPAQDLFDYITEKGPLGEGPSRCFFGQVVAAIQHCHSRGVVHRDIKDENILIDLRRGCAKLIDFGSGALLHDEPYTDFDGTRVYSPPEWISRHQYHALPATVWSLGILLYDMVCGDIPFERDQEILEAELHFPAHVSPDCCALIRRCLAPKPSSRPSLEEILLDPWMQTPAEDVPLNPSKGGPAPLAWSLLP
Chain of BLK (P51451 whole entry): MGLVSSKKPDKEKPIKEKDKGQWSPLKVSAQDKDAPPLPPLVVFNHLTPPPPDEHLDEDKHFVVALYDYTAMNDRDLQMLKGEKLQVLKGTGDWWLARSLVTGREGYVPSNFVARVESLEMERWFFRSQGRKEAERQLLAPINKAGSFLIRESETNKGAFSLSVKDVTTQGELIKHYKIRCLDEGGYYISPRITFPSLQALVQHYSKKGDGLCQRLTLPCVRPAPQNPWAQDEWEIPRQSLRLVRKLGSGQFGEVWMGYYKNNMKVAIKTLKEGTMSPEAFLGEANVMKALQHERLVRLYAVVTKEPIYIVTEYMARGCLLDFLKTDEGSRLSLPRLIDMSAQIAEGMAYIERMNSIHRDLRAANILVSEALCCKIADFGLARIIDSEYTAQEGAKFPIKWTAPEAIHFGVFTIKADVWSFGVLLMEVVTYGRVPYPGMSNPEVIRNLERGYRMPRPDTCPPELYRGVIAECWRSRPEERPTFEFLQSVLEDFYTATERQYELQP
Chain of CDK8/cyclin C (P49336 whole entry): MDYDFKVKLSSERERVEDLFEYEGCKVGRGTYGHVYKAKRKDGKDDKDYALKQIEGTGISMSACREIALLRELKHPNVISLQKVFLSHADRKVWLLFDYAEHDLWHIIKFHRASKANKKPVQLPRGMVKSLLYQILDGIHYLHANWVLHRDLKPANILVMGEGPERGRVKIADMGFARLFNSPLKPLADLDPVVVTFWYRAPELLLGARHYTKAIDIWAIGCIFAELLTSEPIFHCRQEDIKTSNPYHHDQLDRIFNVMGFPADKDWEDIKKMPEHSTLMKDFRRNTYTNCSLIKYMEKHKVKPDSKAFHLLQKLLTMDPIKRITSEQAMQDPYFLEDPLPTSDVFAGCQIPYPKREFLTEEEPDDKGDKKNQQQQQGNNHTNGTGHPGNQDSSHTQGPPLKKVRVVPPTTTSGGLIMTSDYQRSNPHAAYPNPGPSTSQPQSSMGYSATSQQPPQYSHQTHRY
Chain of CDK8/cyclin C (P24863 whole entry partner): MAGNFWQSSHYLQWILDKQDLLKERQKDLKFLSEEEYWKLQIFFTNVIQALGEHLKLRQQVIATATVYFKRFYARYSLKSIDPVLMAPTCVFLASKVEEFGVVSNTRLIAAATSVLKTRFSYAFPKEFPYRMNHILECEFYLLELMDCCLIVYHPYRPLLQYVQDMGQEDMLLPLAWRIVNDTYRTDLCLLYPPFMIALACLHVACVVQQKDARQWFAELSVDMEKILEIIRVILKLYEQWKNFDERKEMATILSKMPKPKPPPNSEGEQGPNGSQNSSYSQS
Chain of P38b/MAPK11 (Q15759 whole entry): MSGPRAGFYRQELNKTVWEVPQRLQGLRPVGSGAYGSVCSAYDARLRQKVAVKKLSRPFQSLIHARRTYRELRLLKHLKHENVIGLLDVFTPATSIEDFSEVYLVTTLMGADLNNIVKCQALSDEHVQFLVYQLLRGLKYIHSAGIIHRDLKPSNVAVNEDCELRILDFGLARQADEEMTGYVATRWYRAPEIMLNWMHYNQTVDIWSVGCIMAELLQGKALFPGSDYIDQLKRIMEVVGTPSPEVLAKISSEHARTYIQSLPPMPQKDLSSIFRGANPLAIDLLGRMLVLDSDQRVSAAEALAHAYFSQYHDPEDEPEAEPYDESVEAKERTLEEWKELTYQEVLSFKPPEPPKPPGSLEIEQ

Compound `COc1cc(N2CCN(C)CC2)c(C)cc1Nc1ncc(Br)c(Nc2cccnc2N(C)C)n1` [TP-5801] has a remaining activity at 0.3 µM (BLK; [1]) of 88.3%, a remaining activity at 0.3 µM (BLK; [2]) of 87.5% and a remaining activity at 0.3 µM (BRSK2; [1]) of 119%. It also gave a remaining activity at 0.3 µM (BRSK2; [2]) of 116%, a remaining activity at 0.3 µM (CDK4/cyclin D1; [1]) of 106% and a remaining activity at 0.3 µM (CDK4/cyclin D1; [2]) of 104%. The remaining activity at 0.3 µM (CDK8/cyclin C; [1]) was 31.9%, the remaining activity at 0.3 µM (CDK8/cyclin C; [2]) was 31.6% and the remaining activity at 0.3 µM (CK2a; [1]) was 42.4%. For the same compound, the remaining activity at 0.3 µM (CK2a; [2]) was 41.8%, the remaining activity at 0.3 µM (LYN B; [1]) was 99.5% and the remaining activity at 0.3 µM (LYN B; [2]) was 99.4%. The remaining activity at 0.3 µM (MYLK3; [1]) was 110%, the remaining activity at 0.3 µM (MYLK3; [2]) was 109% and the remaining activity at 0.3 µM (MYO3A; [1]) was 69.8%. It also gave a remaining activity at 0.3 µM (MYO3A; [2]) of 66.3%, a remaining activity at 0.3 µM (NEK1; [1]) of 105% and a remaining activity at 0.3 µM (NEK1; [2]) of 104%. It also gave a remaining activity at 0.3 µM (OSR1/OXSR1; [1]) of 110%, a remaining activity at 0.3 µM (OSR1/OXSR1; [2]) of 104% and a remaining activity at 0.3 µM (P38b/MAPK11; [1]) of 102%. The remaining activity at 0.3 µM (P38b/MAPK11; [2]) was 101%, the remaining activity at 0.3 µM (PIM2; [1]) was 116% and the remaining activity at 0.3 µM (PIM2; [2]) was 110%. For the same compound, the remaining activity at 0.3 µM (PKCa; [1]) was 98.6%, the remaining activity at 0.3 µM (PKCa; [2]) was 98% and the remaining activity at 0.3 µM (PKCb1; [1]) was 90.9%. It also gave a remaining activity at 0.3 µM (PKCb1; [2]) of 90.2%, a remaining activity at 0.3 µM (PKCg; [1]) of 115% and a remaining activity at 0.3 µM (PKCg; [2]) of 107%. The remaining activity at 0.3 µM (PKCzeta; [1]) was 97.2%, the remaining activity at 0.3 µM (PKCzeta; [2]) was 97.1% and the remaining activity at 0.3 µM (PKG1b; [1]) was 51%. For the same compound, the remaining activity at 0.3 µM (PKG1b; [2]) was 50%, the remaining activity at 0.3 µM (SBK1; [1]) was 99% and the remaining activity at 0.3 µM (SBK1; [2]) was 95.5%. It also gave a remaining activity at 0.3 µM (TSSK3/STK22C; [1]) of 97.1%, a remaining activity at 0.3 µM (TSSK3/STK22C; [2]) of 94.6% and a remaining activity at 0.3 µM (TYK2; [1]) of 100%. For the same compound, the remaining activity at 0.3 µM (TYK2; [2]) was 96.7%.
